In one series the test system is K562. As to the kind of experiment: Inhibition of cell proliferation, CTG method, 72 hours. Format: cell-based. To be noted: K562 cells. As to the method: (§1) Cells are cultured under a complete culture medium; when cells are attached to the wall, drug of different concentrations is added in each tumor cell line for treatment, and a positive control, a blank control and a solvent control are set. Cells are incubated for 72 hours and then CTG method is used for detection.

The subject of a further series is SUP-B15. The series is described as above. It counts as cell-based. The note with it: SUP-B15 cells. As for the experimental part:
as §1

Another series deals with PC-3. Described as above. It counts as cell-based. To be noted: PC-3 cells. As to the method: as §1
The next series deals with KU812. Described as above. It counts as cell-based. The note with it: KU812 cells. As for the experimental part:
as §1

Series [1] relates to Caco-2 cell monolayer. The series is described as follows: Caco-2 cell monolayer transmembrane transport (unidirectional and bidirectional). The note with it: for Papp (*10^−6)A→B: Caco-2, A→B; for Papp (*10^−6)A→B / Papp (*10^−6)B→A: 90 min incubation; for Papp (*10^−6)B→A: Caco-2, B→A; for Papp (B→A)/Papp (A→B): Caco-2 efflux ratio, >2 suggests efflux transporter.
Protocol: (§2) Wherein dQ is an accumulated penetration amount of a drug receiving pond with a measure unit pmol; dt is incubation time with a measure unit min; A is a diffusion area with a measure unit cm^2; C0 is an initial administration concentration of an administrating pond with a measure unit μmol. L^−1; Papp has a measure unit cm/s.
(§3) An evaluation objective of the bidirectional transport is to preliminary observe that the transmembrane transport of the object to be tested has active transport procedure mediated by an efflux transporter.
Assay in series [2]: as above
Protocol: as §2, §3
To be noted: human, Caco-2.

A short description of series [3]: Absolute bioavailability, intravenous vs intragastric administration. Format: in vivo. The note with it: male SD rat, intragastric vs tail intravenous injection. As to the method: Animal: male SD rat Groups of the experiment: intravenous injection group and oral administration group, four rats being provided for each rat Administration manner: tail intravenous injection, intragastric administration Data processing: an area under a curve is calculated for intravenous injection and oral administration by using a trapezoidal method, and a bioavailability is calculated by using the following formula: […]

In series [4] the test system is Caco-2 cell monolayer.
Protocol: as §2, §3

Where two headings read alike, the source gives them in different places.

In the series with K562, `Cc1nc(Nc2ncc(C(=O)Nc3c(C)cccc3Cl)s2)cc(N2CCN(CCOCCOCCOCCOCCOCCN3CCN(c4cc(Nc5ncc(C(=O)Nc6c(C)cccc6Cl)s5)nc(C)n4)CC3)CC2)n1` [DSTN-42, Double End-substituted Tetraethylene Glycol-dasatinib] gave an IC50 of 0.5 nM and a Maximum inhibition rate of 80.34%. In addition, in the series on SUP-B15, 50 nM corresponded to half-maximal inhibition (IC50) and the Maximum inhibition rate stood at 93.36%. In addition, the Maximum inhibition rate in the series with PC-3 was 30.97%. In the series with KU812, this molecule displayed an IC50 of 0.79 nM and a Maximum inhibition rate of 96.91%. In the series on Caco-2 cell monolayer [1], the “Papp (*10^−6)A→B” value is listed as 4.57 ± 0.87 *10^−6 cm/s, the “Papp (*10^−6)B→A” value is listed as 11.43 ± 0.72 *10^−6 cm/s and the “Papp (B→A)/Papp (A→B)” value is on record as 2.50.

Take `Cc1nc(Nc2ncc(C(=O)Nc3c(C)cccc3Cl)s2)cc(N2CCN(CCOCCOCCOCCOCCOCCOCCOCCN3CCN(c4cc(Nc5ncc(C(=O)Nc6c(C)cccc6Cl)s5)nc(C)n4)CC3)CC2)n1` [DSTN-62, Double Endhexaethylene Glycol-dasatinib]: in the series with K562, it took 0.34 nM to reach half-maximal inhibition (IC50) and the Maximum inhibition rate turned out to be 81.76%. Further, in the series on SUP-B15, the IC50 stood at 60 nM and the Maximum inhibition rate was found to be 81.47%. Moreover, in the series on PC-3, the Maximum inhibition rate was found to be 29.74%. In the series with KU812, the IC50 was 0.49 nM and the Maximum inhibition rate amounted to 96.00%. Besides, in the series on Caco-2 cell monolayer [1], the “Papp (*10^−6)A→B” value is on record as 6.44 ± 0.11 *10^−6 cm/s, the “Papp (*10^−6)B→A” value is listed as 15.01 ± 0.59 *10^−6 cm/s and the “Papp (B→A)/Papp (A→B)” value was 2.33.

As to `CCN[C@H]1C[C@H](C)S(=O)(=O)c2sc(S(=O)(=O)NCCOCCOCCOCCOCCOCCOCCOCCOCCOCCOCCOCCNS(=O)(=O)c3cc4c(s3)S(=O)(=O)[C@@H](C)C[C@@H]4NCC)cc21` [DZA-03, Double End Substituted Odecylethyleneglycol-dorzolamide], in the series on Caco-2 cell monolayer [1], the “Papp (*10^−6)A→B” value is reported as 8.96 ± 0.35 *10^−6 cm/s, the “Papp (*10^−6)B→A” value was 23.67 ± 0.45 *10^−6 cm/s and the “Papp (B→A)/Papp (A→B)” value was 2.64.

Take `CCN[C@H]1C[C@H](C)S(=O)(=O)c2sc(S(=O)(=O)NCCOCC(COCCNS(=O)(=O)c3cc4c(s3)S(=O)(=O)[C@@H](C)C[C@@H]4NCC)(COCCNS(=O)(=O)c3cc4c(s3)S(=O)(=O)[C@@H](C)C[C@@H]4NCC)COCCNS(=O)(=O)c3cc4c(s3)S(=O)(=O)[C@@H](C)C[C@@H]4C)cc21` [DZA-06, Four-Branch Ethyleneglycol-dorzolamide Conjugate]: in series [2], the Papp A→B at 90 min was 8.86 ± 0.51 ×10⁻⁶ cm/s, the Papp B→A at 90 min was found to be 18.1 ± 0.32 ×10⁻⁶ cm/s and the efflux ratio at 90 min came out at 2.05.

In the case of `CN(C)CCc1c[nH]c2ccc(CS(=O)(=O)N(C)CCOCCOCCOCCOCCOCCN(C)S(=O)(=O)Cc3ccc4[nH]cc(CCN(C)C)c4c3)cc12` [SMQT-01, Double End-substituted Hexaethyleneglycol-sumatriptan], in series [2], the Papp A→B at 90 min amounted to 10.6 ± 0.36 ×10⁻⁶ cm/s, the Papp B→A at 90 min was 15.5 ± 0.06 ×10⁻⁶ cm/s and the efflux ratio at 90 min was determined as 1.47. The molecule further displayed a bioavailability in series [3] (blood, oral) of 17%.

Regarding `CN(C)CCc1c[nH]c2ccc(CS(=O)(=O)N(C)CCOCCOCCOCCOCCN(C)S(=O)(=O)Cc3ccc4[nH]cc(CCN(C)C)c4c3)cc12` [SMQT-02, Double End-substituted Pentaethyleneglycol-sumatriptan], in series [3], the absolute bioavailability came to 23%. Further, in the series on Caco-2 cell monolayer [4], the “Papp (*10^−6)A→B” value is recorded as 9.87 ± 0.03 *10^−6 cm/s and the “Papp (*10^−6)B→A” value is on record as 14.52 ± 0.12 *10^−6 cm/s.

Regarding `CN(C)CCc1c[nH]c2ccc(CS(=O)(=O)N(C)CCOCCOCCN(C)S(=O)(=O)Cc3ccc4[nH]cc(CCN(C)C)c4c3)cc12` [SMQT-03, Double End-substituted Triethylene Glycol-sumatriptan], the absolute bioavailability in series [3] is given as 25%. Moreover, in the series with Caco-2 cell monolayer [4], the “Papp (*10^−6)A→B” value is listed as 6.25 ± 0.51 *10^−6 cm/s and the “Papp (*10^−6)B→A” value was 11.06 ± 0.21 *10^−6 cm/s.

Take “Double End Substituted Hexaethyleneglycol-dorzolamide [DZA-02]”: in the series with Caco-2 cell monolayer [1], the “Papp (*10^−6)A→B” value is recorded as 12.32 ± 0.34 *10^−6 cm/s, the “Papp (*10^−6)B→A” value is recorded as 25.50 ± 1.21 *10^−6 cm/s and the “Papp (B→A)/Papp (A→B)” value worked out at 2.07.

As to “Single End Substituted Pentaethyleneglycol-dorzolamide [DZA-01]”, in the series on Caco-2 cell monolayer [1], the “Papp (*10^−6)A→B” value is on record as 11.54 ± 0.36 *10^−6 cm/s, the “Papp (*10^−6)B→A” value is 15.50 ± 0.06 *10^−6 cm/s and the “Papp (B→A)/Papp (A→B)” value came to 1.34.

By IC50 is commonly meant the concentration needed to halve the response being measured. Low readings indicate higher potency, high ones lower potency. The term Papp A→B denotes the apparent permeability from the apical to the basolateral side of a cell layer. A lower Papp A→B goes with slow passage. One may read the Papp B→A as how fast a substance crosses the layer from the basolateral side. As a reminder, the efflux ratio is the permeability from basolateral to apical divided by that in the opposite direction, in the common usage. As a reminder, the bioavailability is the share of a dose that reaches the circulation, judged against a reference dose that is usually intravenous.

Values taken from patent US10052392B2, “Low molecular weight polyethylene glycol drug conjugates having improved drug biological activity” (JENKEM TECHNOLOGY CO., LTD. (TIANJIN), priority 2013, dated 2018).
